What was measured:
[1] = target: T1, Synpcc7942_0903 (aconitase, ACN) (Synechococcus elongatus, UniProt Q31PT6); assay: aconitase activity, cis-aconitate formation at […] nm; format: biochemical; conditions: 0.25-10 µM ppGpp, 10 min preincubation; 1 mM citrate, 100 mM potassium phosphate pH 8.0, 30 °C, anaerobic; inhibitor
T1 construct: full-length gene in pET28a (NdeI/HindIII), N-terminal His6-tag, E. coli BL21-CodonPlus(DE3)-RIL, Ni column, purified anaerobically

[2] = target: T1, Synpcc7942_0903 (aconitase, ACN); assay: as above; format: biochemical; conditions: 1 mM citrate, 100 mM potassium phosphate pH 8.0, 30 °C, anaerobic

Row | relative activity (% of activity without ppGpp) at maximum inhibition [1] | SMILES | aconitase activity, cis-aconitate formation at 240 nm [2]
1 | ~ 63 | Nc1nc2c(ncn2[C@@H]2O[C@H](COP(=O)(O)OP(=O)(O)O)[C@@H](OP(=O)(O)OP(=O)(O)O)[C@H]2O)c(=O)[nH]1 [ppGpp] | 
2 |  | O=C(O)CC(O)(CC(=O)O)C(=O)O [citrate] | monitoring the formation of cis-aconitate in a reaction mixture containing

Source: PMC10749895, “ppGpp accumulation reduces the expression of the global nitrogen homeostasis-modulating NtcA regulon by affecting 2-oxoglutarate levels” (Communications Biology, 2023)
